According to the supplement of paper PMC10307832:

Experiments:
Assay in all cases: relative viability (nuclei count vs DMSO), 5 days (fraction); higher = more cells survive
[1] = compound: CN(c1ncccc1CNc1nc(Nc2ccc3c(c2)CC(=O)N3)ncc1C(F)(F)F)S(C)(=O)=O + CS(=O)(=O)N1CCN(Cc2cc3nc(-c4cccc5[nH]ncc45)nc(N4CCOCC4)c3s2)CC1 [Pictilisib] (partner 1 µM)
Summary of the method: (§1)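 Cells from lung cancer lines were seeded into 1536-well plates and, one day later, dosed by pin tool. Treatments were either a single drug or a fixed dose of an anchor drug with five library-drug doses (not always all listed) in √10 steps. After 5 days, nuclei were stained in a one-step fixation (final 0.05% Triton X-100, 1% formaldehyde, 1 ug/ml Hoechst) and counted on 4× images, and relative viability is the treated-to-vehicle nuclei ratio, as the median of duplicate plates.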

[2] = compound: CN(c1ncccc1CNc1nc(Nc2ccc3c(c2)CC(=O)N3)ncc1C(F)(F)F)S(C)(=O)=O + C[C@@H](Oc1cc(-c2cnn(C3CCNCC3)c2)cnc1N)c1c(Cl)ccc(F)c1Cl [Crizotinib] (partner 1 µM)
Summary of the method: as §1

[3] = compound: CN(c1ncccc1CNc1nc(Nc2ccc3c(c2)CC(=O)N3)ncc1C(F)(F)F)S(C)(=O)=O + Cc1nc(NC(=O)N2CCC[C@H]2C(N)=O)sc1-c1ccnc(C(C)(C)C(F)(F)F)c1 [Alpelisib] (partner 2 µM)
Summary of the method: as §1

[4] = compound: CN(c1ncccc1CNc1nc(Nc2ccc3c(c2)CC(=O)N3)ncc1C(F)(F)F)S(C)(=O)=O + CS(=O)(=O)CCNCc1ccc(-c2ccc3ncnc(Nc4ccc(OCc5cccc(F)c5)c(Cl)c4)c3c2)o1 [Lapatinib] (partner 2 µM)
Summary of the method: as §1

[5] = compound: CN(c1ncccc1CNc1nc(Nc2ccc3c(c2)CC(=O)N3)ncc1C(F)(F)F)S(C)(=O)=O + CC(C)C[C@H](NC(=O)[C@H](Cc1ccccc1)NC(=O)c1cnccn1)B(O)O [Bortezomib] (partner 0.002 µM)
Summary of the method: as §1

[6] = compound: CN(c1ncccc1CNc1nc(Nc2ccc3c(c2)CC(=O)N3)ncc1C(F)(F)F)S(C)(=O)=O + O=C(c1cc(Cc2n[nH]c(=O)c3ccccc23)ccc1F)N1CCN(C(=O)C2CC2)CC1 [Olaparib] (partner 8 µM)
Summary of the method: as §1

[7] = compound: CN(c1ncccc1CNc1nc(Nc2ccc3c(c2)CC(=O)N3)ncc1C(F)(F)F)S(C)(=O)=O + CC1(C)CCC(c2ccc(Cl)cc2)=C(CN2CCN(c3ccc(C(=O)NS(=O)(=O)c4ccc(N[C@H](CCN5CCOCC5)CSc5ccccc5)c(S(=O)(=O)C(F)(F)F)c4)cc3)CC2)C1 [Navitoclax] (partner 0.5 µM)
Summary of the method: as §1

[8] = compound: CN(c1ncccc1CNc1nc(Nc2ccc3c(c2)CC(=O)N3)ncc1C(F)(F)F)S(C)(=O)=O + COc1cc2c(Oc3ccc(NC(=O)C4(C(=O)Nc5ccc(F)cc5)CC4)cc3F)ccnc2cc1OCCCN1CCOCC1 [Foretinib] (partner 0.25 µM)
Summary of the method: as §1

[9] = compound: CN(c1ncccc1CNc1nc(Nc2ccc3c(c2)CC(=O)N3)ncc1C(F)(F)F)S(C)(=O)=O + C[C@]1(O)C[C@@H](c2nc(-c3ccc4ccc(-c5ccccc5)nc4c3)c3c(N)nccn32)C1 [Linsitinib] (partner 1 µM)
Summary of the method: as §1

[10] = compound: CN(c1ncccc1CNc1nc(Nc2ccc3c(c2)CC(=O)N3)ncc1C(F)(F)F)S(C)(=O)=O
Summary of the method: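 Lung cancer cell lines in 1536-well plates were exposed by pinning to five library-drug doses (not always all listed) √10 apart, following an overnight hold at 37 °C. MetaXpress counted Hoechst-stained nuclei from 4× images taken after 5 days without medium change. Viability is the median ratio of treated-well to vehicle-well nuclei across plates. Plates required control CV below 25% and at least one doubling.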

[11] = compound: CN(c1ncccc1CNc1nc(Nc2ccc3c(c2)CC(=O)N3)ncc1C(F)(F)F)S(C)(=O)=O + CCNC(=O)c1noc(-c2cc(C(C)C)c(O)cc2O)c1-c1ccc(CN2CCOCC2)cc1 [Luminespib] (partner 0.01 µM)
Summary of the method: as §1

[12] = compound: CN(c1ncccc1CNc1nc(Nc2ccc3c(c2)CC(=O)N3)ncc1C(F)(F)F)S(C)(=O)=O + Cc1nc(Nc2ncc(C(=O)Nc3c(C)cccc3Cl)s2)cc(N2CCN(CCO)CC2)n1 [Dasatinib] (partner 0.075 µM)
Summary of the method: as §1

[13] = compound: CN(c1ncccc1CNc1nc(Nc2ccc3c(c2)CC(=O)N3)ncc1C(F)(F)F)S(C)(=O)=O + N=C(N)NC(=N)NCCc1ccccc1 [Phenformin] (partner 250 µM)
Summary of the method: as §1

[14] = compound: CN(c1ncccc1CNc1nc(Nc2ccc3c(c2)CC(=O)N3)ncc1C(F)(F)F)S(C)(=O)=O + COc1cccc2cc(-c3nc([C@H]4CC[C@H](C(=O)O)CC4)n4ncnc(N)c34)[nH]c12 [OSI-027] (partner 0.5 µM)
Summary of the method: as §1

[15] = compound: CN(c1ncccc1CNc1nc(Nc2ccc3c(c2)CC(=O)N3)ncc1C(F)(F)F)S(C)(=O)=O + Cc1cc(Nc2cc(N3CCN(C)CC3)nc(Sc3ccc(NC(=O)C4CC4)cc3)n2)n[nH]1 [Tozasertib] (partner 0.1 µM)
Summary of the method: as §1

NCI-H1299
relative viability ([1]; first compound 0.01 µM): 0.754 | relative viability ([1]; first compound 0.03162 µM): 0.768 | relative viability ([1]; first compound 0.1 µM): 0.809 | relative viability ([1]; first compound 0.3162 µM): 0.739 | relative viability ([1]; first compound 1 µM): 0.693 | relative viability ([2]; first compound 0.01 µM): 0.989 | relative viability ([2]; first compound 0.03162 µM): 1.02 | relative viability ([2]; first compound 0.1 µM): 0.979 | relative viability ([2]; first compound 0.3162 µM): 0.995 | relative viability ([2]; first compound 1 µM): 0.955 | relative viability ([3]; first compound 0.01 µM): 1.05 | relative viability ([3]; first compound 0.03162 µM): 1.02 | relative viability ([3]; first compound 0.1 µM): 1.01 | relative viability ([3]; first compound 0.3162 µM): 1.04 | relative viability ([3]; first compound 1 µM): 1.05 | relative viability ([4]; first compound 0.01 µM): 1.03 | relative viability ([4]; first compound 0.03162 µM): 0.949 | relative viability ([4]; first compound 0.1 µM): 1 | relative viability ([4]; first compound 0.3162 µM): 0.988 | relative viability ([4]; first compound 1 µM): 0.972 | relative viability ([5]; first compound 0.01 µM): 1.05 | relative viability ([5]; first compound 0.03162 µM): 1.01 | relative viability ([5]; first compound 0.1 µM): 1.04 | relative viability ([5]; first compound 0.3162 µM): 0.996 | relative viability ([5]; first compound 1 µM): 1.02 | relative viability ([6]; first compound 0.01 µM): 0.96 | relative viability ([6]; first compound 0.03162 µM): 1.04 | relative viability ([6]; first compound 0.1 µM): 0.991 | relative viability ([6]; first compound 0.3162 µM): 0.948 | relative viability ([6]; first compound 1 µM): 0.955 | relative viability ([7]; first compound 0.01 µM): 1.04 | relative viability ([7]; first compound 0.03162 µM): 1.05 | relative viability ([7]; first compound 0.1 µM): 1.06 | relative viability ([7]; first compound 0.3162 µM): 1.07 | relative viability ([7]; first compound 1 µM): 1.04 | relative viability ([8]; first compound 0.01 µM): 1.12 | relative viability ([8]; first compound 0.03162 µM): 1.1 | relative viability ([8]; first compound 0.1 µM): 1.05 | relative viability ([8]; first compound 0.3162 µM): 1.09 | relative viability ([8]; first compound 1 µM): 1.08 | relative viability ([9]; first compound 0.01 µM): 1.06 | relative viability ([9]; first compound 0.03162 µM): 1.05 | relative viability ([9]; first compound 0.1 µM): 0.961 | relative viability ([9]; first compound 0.3162 µM): 0.976 | relative viability ([9]; first compound 1 µM): 0.986 | relative viability ([10]; 0.01 µM): 1.02 | relative viability ([10]; 0.03162 µM): 1.04 | relative viability ([10]; 0.1 µM): 1.04 | relative viability ([10]; 0.3162 µM): 0.986 | relative viability ([10]; 1 µM): 1.01

NCI-H1623
relative viability ([11]; first compound 0.03162 µM): 0.59 | relative viability ([11]; first compound 0.1 µM): 0.503 | relative viability ([11]; first compound 0.3162 µM): 0.514 | relative viability ([11]; first compound 1 µM): 0.429 | relative viability ([12]; first compound 0.03162 µM): 0.514 | relative viability ([12]; first compound 0.1 µM): 0.623 | relative viability ([12]; first compound 0.3162 µM): 0.51 | relative viability ([12]; first compound 1 µM): 0.528 | relative viability ([13]; first compound 0.03162 µM): 0.571 | relative viability ([13]; first compound 0.1 µM): 0.626 | relative viability ([13]; first compound 0.3162 µM): 0.568 | relative viability ([13]; first compound 1 µM): 0.593 | relative viability ([14]; first compound 0.01 µM): 0.418 | relative viability ([14]; first compound 0.03162 µM): 0.423 | relative viability ([14]; first compound 0.1 µM): 0.428 | relative viability ([14]; first compound 0.3162 µM): 0.435 | relative viability ([14]; first compound 1 µM): 0.462 | relative viability ([8]; first compound 0.01 µM): 0.798 | relative viability ([8]; first compound 0.03162 µM): 0.905 | relative viability ([8]; first compound 0.1 µM): 0.974 | relative viability ([8]; first compound 0.3162 µM): 0.882 | relative viability ([8]; first compound 1 µM): 0.826 | relative viability ([15]; first compound 0.03162 µM): 0.452 | relative viability ([15]; first compound 0.1 µM): 0.383 | relative viability ([15]; first compound 0.3162 µM): 0.447 | relative viability ([15]; first compound 1 µM): 0.428 | relative viability ([10]; 0.01 µM): 0.733 | relative viability ([10]; 0.03162 µM): 1.07 | relative viability ([10]; 0.1 µM): 0.92 | relative viability ([10]; 0.3162 µM): 0.968 | relative viability ([10]; 1 µM): 0.963
